According to US6310037A, “Method of controlling protozoan infections using syringomycin-family lipodepsipeptides” (Utah State University, priority 1999, dated 2001):
Values after ≈ are worked out from the molar mass of the structure shown. Like-named read-outs stand apart in the source and are kept apart here. Where a SMILES comes first, the peptide text is derived from it. Bridges are numbered along the chain shown (N, C = ends). [ ]: non-standard residue; d: D form. The star is where a group is joined. Asp(3S-OH) = N[C@H](C(=O)O)[C@H](O)C(=O)O; Thr(4-Cl) = N[C@H](C(=O)O)[C@H](O)CCl; X1 = CCCCCCCCC[C@@H](O)CC(=O)*; dDab = NCC[C@@H](N)C(=O)O; Dab = NCC[C@H](N)C(=O)O; Dhb = C/C=C(\N)C(=O)O

How the values were obtained:
MDBK cells = test: Cytotoxicity of Syr-E to MDBK host cells (LDH assay, visual observation); type: cell-based, bovine; settings: for Syr-E related cytotoxicity (LDH assay) compared to infected and untreated control: Syr-E 5, 10, 15, 20 μg/ml tested
Source text: Madin-Darby bovine kidney (MDBK) epithelial cells were also used to culture C. parvum in this study. Dulbecco's modified Eagle medium (DMEM) with 10% FBS was used for routine passage of MDBK cells purchased from American Type Collection for Culture (Rockville, Md.). Mycoplasma contamination was periodically checked with Hoechst staining (Uphoff et al., 1992). At confluence, MDBK cells were lifted from culture flasks with trypsin, enumerated, and redistributed to assay plates. Ninety-six well cell culture plates were employed to assess cytotoxicity of testing agents or the parasite or both to host cells using neutral red staining or lactic dehydrogenase (LDH) assay.
A volume of 10 μl/well culture supernatant was pipetted into a 96-well plate and mixed with 50 μl/well substrate solution containing 0.75 mM sodium pyruvate and 1 mg beta-NADH/ml. Following incubation at 37° C. for 30 min, the plate was added with 50 μl of 2,4-dinitrophenylhydrazine/well and kept at 25° C. for 20 min., and then the plate was added with a volume of 200 μl/well of 0.6 N NaOH, mixed well, and retained at 25° C. for 10 min. prior to being quantified by the Microplate Autoreader with a wavelength set at 515 nm.
A single concentration of Syr-E at 15 μg/ml was used to treat MDBK cells at pH 7 with C. parvum infection. Group 1 served as an infection control, receiving no Syr-E treatment. Syr-E was administered 1 day prior to parasite inoculation to groups 2, 4, and 5, at the inoculation day to groups 3-5, and 1 day post inoculation to groups 3 and 5, respectively. Following specified administration day(s), supernatants of corresponding wells containing Syr-E were removed and replaced with fresh DMEM base. Cytotoxicity was monitored using lactic dehydrogenase (LDH) assay on day 1 post inoculation. Three coverslips from each group were collected on days 2 and 5 post inoculation, were fixed, and were stained with the specific IFA, as described with reference to Example II.
Group 1 received neither Syr-E treatment nor inoculation and its cytotoxicity was set at 0%, as illustrated on day 2. Group 2 received only C. parvum inoculation serving as an infection control. Groups 3-6 received both the inoculation and Syr-E treatments at 5, 10, 15, and 20 μg/ml, respectively. Data in FIG. 4 are presented as the means +/- standard errors of the mean. […] Cytotoxicity of Syr-E to host cells was measured using LDH assay on both days 1 and 2 post inoculation. More (P<0.01) cytotoxicity was shown on day 1 post inoculation than day 2 post inoculation. […] Overall, more cytotoxicity was observed as Syr-E concentrations increased.

L. donovani = type: cell-based; settings: pH 5.5, 72 hours
Method: L. donovani parasites (WHO designation: MHOM/SD/62/1S-CL2D) used in this study were originally donated by the National Institutes of Health. These parasites were maintained as axenic amastigote-like forms by serial passage at 37°C. in a humid atmosphere containing 5% CO2 using a slightly modified version of the medium described by Joshi et al., Cloning and characterization of differentially expressed genes from in vitro-grown `amastigotes` of Leishmania donovani. Molecular and Biochemical Parasitology, 1993. 58: p. 345-354, the contents of which are incorporated herein by this reference.
L. donovani amastigote-like forms were seeded at 10^6 cells/ml in 96-well flat-bottom plates (Costar) in the amastigote medium described above in the presence or absence of drugs. The final volume in each well was 60 μl. Wells containing control parasites included 1% DMSO, the maximum concentration of the vehicle found in drug-containing samples. Plates were incubated at 37° C. in a humid 5% CO2 atmosphere for 72 hours, then 12 μl of the aqueous CellTiter solution (Promega) was added to each well according to the instructions of the manufacturer. Plates were returned to the 37° C. incubator for a further 4-5 hours, then the absorbance of each well was measured at 490 nm using a SpectraMax Plus plate reader (Molecular Devices, Sunnyvale, Calif.). IC50 values for each of the drugs (the concentration of drug that inhibited the growth of parasites by 50% compared to controls) was determined with the aid of the program SoftMax Pro (Molecular Devices). The log dose response equation y=((a-d)/(1+(x/c)^b))+d was used to calculate IC50 values, where x=drug concentration, y=absorbance at 490 nm, a=upper asymptote, b=slope, c=IC50, and d=lower asymptote.
Activity of Syr-E against L. donovani was determined using a cell-free amastigote culture technique that included the uptake of a vital dye (Cell Titer solution, Promega Corporation) as a measure of parasite viability at 72 hours post inoculation. OD values for serial dilutions of Syr-E were transformed as described for the malaria screen (Example VII) to determine IC50 values against Leishmania. The amastigote assay was performed at a pH of 5.5, which is favorable for Syr-E activity.

With `C/C=C1\NC(=O)[C@H](Cc2ccccc2)NC(=O)[C@H](CCCNC(=N)N)NC(=O)[C@H](CCN)NC(=O)[C@@H](CCN)NC(=O)[C@@H](CO)NC(=O)[C@@H](NC(=O)C[C@H](O)CCCCCCCCC)COC(=O)[C@H]([C@H](O)CCl)NC(=O)[C@H]([C@H](O)C(=O)O)NC1=O` [Syr-E, Syringomycin-E] (X1-S[dS][dDab][Dab]RF[Dhb][Asp(3S-OH)][Thr(4-Cl)]; ester 1-C) the visual cell damage (MDBK cells; Syr-E 15 μg/ml, MDBK cells, pH 7, Table 1 schedule) was “no visual cell damage observed”, the “cytotoxicity by LDH assay, treatment schedule groups vs untreated control” value (MDBK cells; Syr-E 15 μg/ml, MDBK cells, pH 7, day 1 post inoculation, Table 1 schedule) was “failed to show significant differences between groups except group 3” and the “visible cell damage on cell monolayers” value (MDBK cells; Syr-E 5-20 μg/ml, MDBK cells, pH 7.0) was “No obvious cell peeling or plaques formed on cell monolayers”. For the same compound, the “Syr-E related cytotoxicity (LDH assay) compared to infected and untreated control” value (MDBK cells; pH 7.0, day 1 post inoculation) was “cytotoxicity appeared at 20 μg/ml on day 1 post inoculation”, the “Syr-E related cytotoxicity (LDH assay) compared to infected and untreated control” value (MDBK cells; pH 7.0, day 2 post inoculation) was 15 and 20 μg/ml on day 2 post inoculation and the “OD Values” (L. donovani; Sample 1, Concentration 4.00000 (unit not given)) was 0.099. For the same compound, the “OD Values” (L. donovani; Sample 2, Concentration 2.00000 (unit not given)) was 0.097, the “OD Values” (L. donovani; Sample 3, Concentration 1.00000 (unit not given)) was 0.090 and the “OD Values” (L. donovani; Sample 4, Concentration 0.50000 (unit not given)) was 0.089. For the same compound, the “OD Values” (L. donovani; Sample 5, Concentration 0.25000 (unit not given)) was 0.090, the “OD Values” (L. donovani; Sample 6, Concentration 0.12500 (unit not given)) was 0.102 and the “OD Values” (L. donovani; Sample 7, Concentration 0.06250 (unit not given)) was 0.678. For the same compound, the “OD Values” (L. donovani; Sample 8, Concentration 0.03125 (unit not given)) was 0.664, the “OD Values” (L. donovani; Sample 9, Concentration 0.01563 (unit not given)) was 0.709 and the “OD Values” (L. donovani; Sample 10, Concentration 0.00781 (unit not given)) was 0.652. For the same compound, the “OD Values” (L. donovani; Sample 11, Concentration 0.00391 (unit not given)) was 0.672 and the IC50 (L. donovani; amastigote assay) was 0.10115 µg/mL (≈ 0.0825 µM).
